Measurements from patent publication US10202379B2, “Substituted polycyclic carbamoyl pyridone derivative prodrug” (priority 2010, dated 2019).

Test system: influenza virus
Experiment: microbe, parasite or virus in culture
Assay type: cell-based
Settings: unidentified influenza virus, 72 h, read-out: CPE EC50, parent compounds (Reference examples); MDBK or MDCK cells, 3 days, WST-8

SMILES	EC50 [nM]
CN1C(=O)c2c(O)c(=O)c(C(=O)O)cn2C[C@H]1C(c1ccccc1)c1ccccc1 [Example 43]	1410
COCCN1C[C@H](C(c2ccccc2)c2ccccc2)n2cc(CO)c(=O)c(O)c2C1=O [Example 48]	10900
COCCN1C[C@H](C(c2ccccc2)c2ccccc2)n2cc(N)c(=O)c(O)c2C1=O [Example 56]	3860
COCCN1C[C@H](C(c2ccccc2)c2ccccc2)n2cc(OC)c(=O)c(O)c2C1=O [Example 62]	1680
COCCN1C[C@H](C(c2ccccc2)c2ccccc2)n2cc(Br)c(=O)c(O)c2C1=O [Example 63]	2000
COCCN1CN(C(c2ccccc2)c2ccccc2)n2cc(C(=O)O)c(=O)c(O)c2C1=O [Example 94]	1470
COCCN1CN(Cc2ccccc2-c2ccccc2)n2ccc(=O)c(O)c2C1=O [Example 99]	2000
CCOC(=O)CCN1CN(C(c2ccccc2)c2ccccc2)n2ccc(=O)c(O)c2C1=O [Example 128]	416
CN(CCN1CN(C(c2ccccc2)c2ccccc2)n2ccc(=O)c(O)c2C1=O)S(=O)(=O)c1ccccc1 [Example 138]	100
O=C(NCCN1CN(C(c2ccccc2)c2ccccc2)n2ccc(=O)c(O)c2C1=O)c1ccccc1 [Example 150]	553
O=C(O)c1cn2c(c(O)c1=O)C(=O)N1CCCO[C@H]1[C@@H]2C(c1ccccc1)c1ccccc1 [Example 175]	102
C[C@@H](N1CN(C(c2ccccc2)c2ccccc2Cl)n2ccc(=O)c(O)c2C1=O)C(F)(F)F (some centres unmarked) [Reference example 243]	20
Cc1nnc(CN2CN(C3c4ccccc4CCc4ccccc43)n3ccc(=O)c(O)c3C2=O)o1 [Reference example 256]	400
O=C1c2c(O)c(=O)ccn2N(C2c3ccccc3CCc3ccccc32)CN1Cc1ncns1 [Reference example 271]	102
COCC(COC)N1CN(C2c3ccccc3CCc3ccccc32)n2ccc(=O)c(O)c2C1=O [Reference example 272]	30
O=C1c2c(O)c(=O)ccn2N(C2c3ccccc3CSc3ccccc32)CN1C1CCC(F)(F)CC1 (centres unmarked) [Reference example 313]	50
CC(C)N1CN(C2c3ccccc3CSc3c(Cl)cccc32)n2ccc(=O)c(O)c2C1=O (centres unmarked) [Reference example 326]	5
O=C1c2c(O)c(=O)ccn2N(C2c3ccccc3CSc3c(Cl)cccc32)CN1[C@@H]1C[C@@H]1F (some centres unmarked) [Reference example 332]	20
COCCN1CN(C2c3ccccc3CSc3c(F)cccc32)n2ccc(=O)c(O)c2C1=O (centres unmarked) [Reference example 336]	70
COCC(COC)N1CN(C2c3ccccc3CSc3c(F)cccc32)n2ccc(=O)c(O)c2C1=O (centres unmarked) [Reference example 339]	40
C[C@@H](N1CN(C2c3ccccc3CSc3cc(F)ccc32)n2ccc(=O)c(O)c2C1=O)C(F)(F)F (some centres unmarked) [Reference example 344]	9
C[C@@H](N1CN(C2c3ccccc3CSc3ccc(F)cc32)n2ccc(=O)c(O)c2C1=O)C(F)(F)F (some centres unmarked) [Reference example 345]	8
CN1CN(C2c3ccccc3CSc3cc(Cl)ccc32)n2ccc(=O)c(O)c2C1=O (centres unmarked) [Reference example 348]	80
CC(C)N1CN(C2c3ccccc3CSc3cc(F)ccc32)n2ccc(=O)c(O)c2C1=O (centres unmarked) [Reference example 352]	20
Cc1cccc2c1SCc1ccccc1C2N1CN(C(C)C)C(=O)c2c(O)c(=O)ccn21 (centres unmarked) [Reference example 356]	20
CC(=O)OCCN1CN(C2c3ccccc3CSc3c(Cl)cccc32)n2ccc(=O)c(O)c2C1=O (centres unmarked) [Reference example 359]	80
C[C@H](CO)N1CN(C2c3ccccc3CSc3ccccc32)n2ccc(=O)c(O)c2C1=O (some centres unmarked) [Reference example 373]	50
COCCN1CN(C2c3ccccc3COc3c(Cl)cccc32)n2ccc(=O)c(O)c2C1=O (centres unmarked) [Reference example 396]	60
CC(C)N1CN(C2c3ccccc3COc3c(F)cccc32)n2ccc(=O)c(O)c2C1=O (centres unmarked) [Reference example 403]	70
